The record followed here is ChEMBL document CHEMBL1124865, “Synthesis and biological evaluation of a series of parenteral 3'-quaternary ammonium cephalosporins” (J Med Chem, 1990).

SMILES strings stand for the structures. ≈ marks a conversion by molar mass, not a printed value.

Holding throughout (type): functional
Assay [1] has as its system Pseudomonas aeruginosa. Kind of assay: Antibacterial activity against Pseudomonas aeruginosa X528. Conditions: Pseudomonas aeruginosa; read-out: MIC.
Assay [2] has as its system Pseudomonas aeruginosa. Description: Antibacterial activity against Pseudomonas aeruginosa PS18. As to conditions: Pseudomonas aeruginosa; read-out: MIC.
For assay [3], the system named is Enterobacter cloacae. Kind of assay: Antibacterial activity against Enterobacter cloacae 265A. Conditions: Enterobacter cloacae; read-out: MIC.
Assay [4] deals with Escherichia coli. Description: Antibacterial activity against Escherichia coli EC14. Conditions: Escherichia coli; read-out: MIC.
Assay [5] deals with Klebsiella pneumoniae. Description: microbe, parasite or virus in culture. As to conditions: Klebsiella pneumoniae; read-out: MIC.
Description: Antibacterial activity against Klebsiella pneumoniae 1082E
Another assay concerns Serratia marcescens. Description: Antibacterial activity against Serratia marcescens SE3. Conditions: Serratia marcescens; read-out: MIC.
Assay [6] has as its system Escherichia coli. Kind of assay: Antibacterial activity against Escherichia coli TEM. As to conditions: Escherichia coli; read-out: MIC.
Another assay deals with Streptococcus pyogenes. Description: Antibacterial activity against Streptococcus pyogenes. As to conditions: Streptococcus pyogenes; read-out: MIC.
In assay [7] the test system is Staphylococcus aureus. Description: Antibacterial activity against penicillin G susceptible Staphylococcus aureus. Conditions: Staphylococcus aureus; read-out: MIC.
Assay [8] relates to Klebsiella pneumoniae. Kind of assay: Antibacterial activity against Klebsiella pneumoniae X26. As to conditions: Klebsiella pneumoniae; read-out: MIC.
Assay [9] concerns Enterobacter cloacae. Description: Antibacterial activity against Enterobacter cloacae EB5. As to conditions: Enterobacter cloacae; read-out: MIC.
For the next assay, the system named is Enterococcus faecium. Description: Antibacterial activity against Enterococcus faecium. Conditions: Enterococcus faecium; read-out: MIC.
Assay [10] concerns Staphylococcus aureus. Kind of assay: Antibacterial activity against penicillin G resistance Staphylococcus aureus. Conditions: Staphylococcus aureus; read-out: MIC.
Another assay concerns Streptococcus pneumoniae. Kind of assay: Antibacterial activity against Streptococcus pneumoniae. Conditions: Streptococcus pneumoniae; read-out: MIC.

As to `C=Cc1sc[n+](CC2=C(C(=O)[O-])N3C(=O)[C@@H](NC(=O)/C(=N\OC)c4csc(N)n4)[C@H]3SC2)c1C`, the MIC with Pseudomonas aeruginosa [1] came to 16 µg/mL (≈ 30.7 µM); in the assay with Pseudomonas aeruginosa [2] it was 32 µg/mL (≈ 61.5 µM); in the assay with Enterobacter cloacae [3], 4 µg/mL (≈ 7.68 µM); with Escherichia coli [4], 0.06 µg/mL (≈ 0.115 µM); in the assay with Klebsiella pneumoniae [5] it was 4 µg/mL (≈ 7.68 µM); in the assay on Serratia marcescens it was 0.25 µg/mL (≈ 0.48 µM). Also, the MIC amounted to 0.03 µg/mL (≈ 0.0576 µM) with Escherichia coli [6]; 0.03 µg/mL (≈ 0.0576 µM) in the assay with Streptococcus pyogenes; 2 µg/mL (≈ 3.84 µM) with Staphylococcus aureus [7]; 0.06 µg/mL (≈ 0.115 µM) with Klebsiella pneumoniae [8]; 0.25 µg/mL (≈ 0.48 µM) in the assay with Enterobacter cloacae [9]; 32 µg/mL (≈ 61.5 µM) in the assay on Enterococcus faecium. In addition, the MIC came to 4 µg/mL (≈ 7.68 µM) in the assay with Staphylococcus aureus [10] and 0.06 µg/mL (≈ 0.115 µM) in the assay on Streptococcus pneumoniae.

`CO/N=C(\C(=O)N[C@@H]1C(=O)N2C(C(=O)[O-])=C(C[n+]3csc4c3CCC4)CS[C@H]12)c1csc(N)n1`: the MIC in the assay on Pseudomonas aeruginosa [1] came to 8 µg/mL (≈ 15.4 µM); in the assay with Pseudomonas aeruginosa [2], 32 µg/mL (≈ 61.5 µM); in the assay on Enterobacter cloacae [3], 4 µg/mL (≈ 7.68 µM); in the assay with Escherichia coli [4], 0.06 µg/mL (≈ 0.115 µM); in the assay with Klebsiella pneumoniae [5], 4 µg/mL (≈ 7.68 µM); in the assay with Serratia marcescens, 0.125 µg/mL (≈ 0.24 µM). In addition, the MIC with Escherichia coli [6] turned out to be 0.06 µg/mL (≈ 0.115 µM); in the assay on Streptococcus pyogenes, 0.06 µg/mL (≈ 0.115 µM); in the assay with Staphylococcus aureus [7], 2 µg/mL (≈ 3.84 µM); with Klebsiella pneumoniae [8], 0.06 µg/mL (≈ 0.115 µM); with Enterobacter cloacae [9], 0.25 µg/mL (≈ 0.48 µM); in the assay with Enterococcus faecium it was 32 µg/mL (≈ 61.5 µM). Also, the MIC in the assay on Staphylococcus aureus [10] amounted to 4 µg/mL (≈ 7.68 µM); with Streptococcus pneumoniae, 0.06 µg/mL (≈ 0.115 µM).

In the case of `CO/N=C(\C(=O)N[C@@H]1C(=O)N2C(C(=O)[O-])=C(C[n+]3cc(C)c4ccccc4c3)CS[C@H]12)c1csc(N)n1`, the MIC in the assay with Pseudomonas aeruginosa [1] was 4 µg/mL (≈ 7.43 µM); with Pseudomonas aeruginosa [2] it was 16 µg/mL (≈ 29.7 µM); with Enterobacter cloacae [3] it was 2 µg/mL (≈ 3.71 µM); in the assay on Escherichia coli [4], 0.06 µg/mL (≈ 0.111 µM); with Klebsiella pneumoniae [5] it was 8 µg/mL (≈ 14.9 µM); with Serratia marcescens, 0.25 µg/mL (≈ 0.464 µM). Besides, the MIC was 0.03 µg/mL (≈ 0.0557 µM) in the assay on Escherichia coli [6]; under 0.008 µg/mL in the assay with Streptococcus pyogenes; 1 µg/mL (≈ 1.86 µM) in the assay on Staphylococcus aureus [7]; 0.015 µg/mL (≈ 0.0278 µM) in the assay with Klebsiella pneumoniae [8]; 0.25 µg/mL (≈ 0.464 µM) in the assay with Enterobacter cloacae [9]; over 128 µg/mL in the assay on Enterococcus faecium. Further, the MIC was 2 µg/mL (≈ 3.71 µM) with Staphylococcus aureus [10] and under 0.008 µg/mL with Streptococcus pneumoniae.

In the case of `CO/N=C(\C(=O)N[C@@H]1C(=O)N2C(C(=O)[O-])=C(C[n+]3ccc4cncnc4c3)CS[C@H]12)c1csc(N)n1`, the MIC stood at 32 µg/mL (≈ 60.8 µM) with Pseudomonas aeruginosa [1]; 64 µg/mL (≈ 122 µM) in the assay on Pseudomonas aeruginosa [2]; 16 µg/mL (≈ 30.4 µM) in the assay with Enterobacter cloacae [3]; 0.25 µg/mL (≈ 0.475 µM) in the assay on Escherichia coli [4]; 16 µg/mL (≈ 30.4 µM) in the assay on Klebsiella pneumoniae [5]; 1 µg/mL (≈ 1.9 µM) in the assay on Serratia marcescens. For the same compound, the MIC with Escherichia coli [6] turned out to be 0.125 µg/mL (≈ 0.237 µM); in the assay with Streptococcus pyogenes, 0.06 µg/mL (≈ 0.114 µM); in the assay on Staphylococcus aureus [7], 4 µg/mL (≈ 7.6 µM); in the assay on Klebsiella pneumoniae [8], 0.125 µg/mL (≈ 0.237 µM); in the assay on Enterobacter cloacae [9], 1 µg/mL (≈ 1.9 µM); in the assay with Enterococcus faecium, 128 µg/mL (≈ 243 µM). Further, the MIC worked out at 32 µg/mL (≈ 60.8 µM) in the assay on Staphylococcus aureus [10] and 0.03 µg/mL (≈ 0.057 µM) in the assay with Streptococcus pneumoniae.

Regarding `CO/N=C(\C(=O)N[C@@H]1C(=O)N2C(C(=O)[O-])=C(C[n+]3ccc4[nH]c(C)nc4c3)CS[C@H]12)c1csc(N)n1`, the MIC in the assay with Pseudomonas aeruginosa [1] was determined as 2 µg/mL (≈ 3.78 µM); in the assay with Pseudomonas aeruginosa [2], 8 µg/mL (≈ 15.1 µM); in the assay with Enterobacter cloacae [3] it was 8 µg/mL (≈ 15.1 µM); in the assay on Escherichia coli [4], 0.008 µg/mL (≈ 0.0151 µM); in the assay on Klebsiella pneumoniae [5], 2 µg/mL (≈ 3.78 µM); with Escherichia coli [6] it was 0.008 µg/mL (≈ 0.0151 µM). Moreover, the MIC with Streptococcus pyogenes stood at 0.008 µg/mL (≈ 0.0151 µM); in the assay on Staphylococcus aureus [7] it was 2 µg/mL (≈ 3.78 µM); with Klebsiella pneumoniae [8] it was 0.008 µg/mL (≈ 0.0151 µM); in the assay with Enterococcus faecium it was 128 µg/mL (≈ 242 µM); with Staphylococcus aureus [10], 8 µg/mL (≈ 15.1 µM); in the assay on Streptococcus pneumoniae, 0.008 µg/mL (≈ 0.0151 µM).

On to `CO/N=C(\C(=O)N[C@@H]1C(=O)N2C(C(=O)[O-])=C(C[n+]3ccc4ccoc4c3)CS[C@H]12)c1csc(N)n1`, for which the MIC in the assay with Pseudomonas aeruginosa [1] was 2 µg/mL (≈ 3.89 µM); with Pseudomonas aeruginosa [2], 8 µg/mL (≈ 15.5 µM); in the assay with Enterobacter cloacae [3], 8 µg/mL (≈ 15.5 µM); in the assay on Escherichia coli [4], 0.015 µg/mL (≈ 0.0292 µM); in the assay with Klebsiella pneumoniae [5] it was 4 µg/mL (≈ 7.77 µM); in the assay on Serratia marcescens, 0.03 µg/mL (≈ 0.0583 µM). Moreover, the MIC with Escherichia coli [6] was 0.015 µg/mL (≈ 0.0292 µM); in the assay with Streptococcus pyogenes, under 0.008 µg/mL; in the assay on Staphylococcus aureus [7] it was 1 µg/mL (≈ 1.94 µM); in the assay with Klebsiella pneumoniae [8], 0.015 µg/mL (≈ 0.0292 µM); in the assay on Enterobacter cloacae [9], 0.06 µg/mL (≈ 0.117 µM); with Enterococcus faecium, over 128 µg/mL. Also, the values for the MIC with Staphylococcus aureus [10] and in the assay with Streptococcus pneumoniae were 8 µg/mL (≈ 15.5 µM) and 0.015 µg/mL (≈ 0.0292 µM), respectively.

`CCc1nc2c[n+](CC3=C(C(=O)[O-])N4C(=O)[C@@H](NC(=O)/C(=N\OC)c5csc(N)n5)[C@H]4SC3)ccc2s1`: the MIC came out at 4 µg/mL (≈ 7.15 µM) in the assay on Pseudomonas aeruginosa [1]; 16 µg/mL (≈ 28.6 µM) with Pseudomonas aeruginosa [2]; 4 µg/mL (≈ 7.15 µM) in the assay on Enterobacter cloacae [3]; 0.015 µg/mL (≈ 0.0268 µM) in the assay on Escherichia coli [4]; 2 µg/mL (≈ 3.57 µM) with Klebsiella pneumoniae [5]; 0.015 µg/mL (≈ 0.0268 µM) in the assay on Escherichia coli [6]. The MIC with Streptococcus pyogenes amounted to 0.008 µg/mL (≈ 0.0143 µM); in the assay on Staphylococcus aureus [7], 1 µg/mL (≈ 1.79 µM); with Klebsiella pneumoniae [8], 0.008 µg/mL (≈ 0.0143 µM); in the assay on Enterococcus faecium it was 128 µg/mL (≈ 229 µM); with Staphylococcus aureus [10], 4 µg/mL (≈ 7.15 µM); in the assay on Streptococcus pneumoniae, 0.008 µg/mL (≈ 0.0143 µM).

`CO/N=C(\C(=O)N[C@@H]1C(=O)N2C(C(=O)[O-])=C(C[n+]3cccc4cc[nH]c43)CS[C@H]12)c1csc(N)n1`: the MIC was 32 µg/mL (≈ 62.3 µM) with Pseudomonas aeruginosa [1]; 64 µg/mL (≈ 125 µM) in the assay with Pseudomonas aeruginosa [2]; 32 µg/mL (≈ 62.3 µM) in the assay on Enterobacter cloacae [3]; 0.5 µg/mL (≈ 0.974 µM) with Escherichia coli [4]; 64 µg/mL (≈ 125 µM) in the assay with Klebsiella pneumoniae [5]; 0.5 µg/mL (≈ 0.974 µM) with Serratia marcescens. In addition, the MIC in the assay on Escherichia coli [6] was 0.125 µg/mL (≈ 0.243 µM); in the assay with Streptococcus pyogenes, under 0.008 µg/mL; in the assay with Staphylococcus aureus [7], 1 µg/mL (≈ 1.95 µM); in the assay on Klebsiella pneumoniae [8], 0.06 µg/mL (≈ 0.117 µM); in the assay on Enterobacter cloacae [9], 2 µg/mL (≈ 3.89 µM); in the assay on Enterococcus faecium, over 128 µg/mL. In addition, the results for the MIC in the assay on Staphylococcus aureus [10] and in the assay on Streptococcus pneumoniae were 8 µg/mL (≈ 15.6 µM) and 0.015 µg/mL (≈ 0.0292 µM), respectively.
